In PubChem BioAssay (NCI):
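Test compounds were applied to cells in 96-well plates for 48 hours at 5 doses. GI50 is the concentration that inhibits growth by half. TGI denotes the concentration required for complete inhibition of growth.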

Assays:
Assay in all cases: NCI-60 cell line screen, 48 h
[1] = system: T-47D breast
[2] = system: DLD-1 colon
[3] = system: LXFL 529 NSCLC
[4] = system: M19-MEL melanoma
[5] = system: RXF-631 renal
[6] = system: SNB-78 CNS
[7] = system: XF 498 CNS
[8] = system: HOP-18 NSCLC
[9] = system: MDA-N

Cn1cc(C2=C(c3cn(CCCN/C(N)=N\[N+](=O)[O-])c4ccccc34)C(=O)NC2=O)c2ccccc21
GI50 [1]: 2.01 µM
TGI [1]: > 14.8 µM

COc1ccc(/C=C\c2cc(OC)c(OC(C)=O)c(OC)c2)cc1
TGI [2]: > 100 µM
TGI [3]: > 100 µM
TGI [4]: > 100 µM
TGI [5]: > 100 µM
TGI [6]: 73.9 µM
TGI [7]: > 100 µM

O=c1c(Br)ccc(Br)cc1Br
GI50 [1]: 0.744 µM
TGI [1]: 3.71 µM

COC(=O)/C=C/c1cc(OC)c2c(c1)[C@@H](C(=O)OC)[C@H](c1ccc(OC)c(OC)c1)O2
GI50 [1]: 4.99 µM
TGI [1]: > 100 µM

C/C(=N\O)c1ccc(Nc2cc(-c3ccccc3)nc3c(O)cccc23)cc1
GI50 [1]: 5.44 µM
TGI [1]: 32.9 µM

COc1ccc2nc3c(cc2c1)C(=O)CC(C(F)(F)F)C3 (configuration not stated)
GI50 [1]: 3.7 µM
TGI [1]: > 100 µM

O=c1c2ccc(Br)cc2nc(-c2ccccc2)n1NC1OC(CO)C(O)C(O)C1O (configuration not stated)
TGI [8]: > 100 µM
TGI [3]: > 100 µM
TGI [4]: > 100 µM
TGI [6]: > 100 µM
TGI [7]: > 100 µM

O=C(NCCOCCO)c1ccc(O)cc1
TGI [2]: > 100 µM
TGI [8]: > 100 µM
TGI [3]: > 100 µM
TGI [4]: > 100 µM
TGI [7]: > 100 µM

COc1cc(-c2nc3cc(Cl)c(Cl)cc3[nH]2)ccc1OCC(=O)N=Nc1c(O)[nH]c2ccccc12
GI50 [1]: 0.288 µM
TGI [1]: 1.14 µM

COc1cc(Nc2nccc(-c3cnn4ncccc34)n2)cc(OC)c1
GI50 [1]: 0.122 µM
TGI [1]: 1.55 µM

Cc1cnc2n(c1=O)Cc1ccccc1CO2
GI50 [1]: 6.79 µM
TGI [1]: 29.3 µM

Cc1cc2c(C=O)[nH]nc2c(C#N)c1C
TGI [2]: > 100 µM
TGI [3]: > 100 µM
TGI [4]: > 100 µM
TGI [5]: > 100 µM
TGI [6]: > 100 µM

COc1ccc(S(=O)(=O)Nc2c(/C=C\c3cc(OC)c(OC)c(OC)c3)ccc(OC)c2O)cc1OC
GI50 [1]: > 86.9 µM
TGI [1]: > 100 µM

CCC1(O)CC(c2ccccc2)N(C)C(c2ccccc2)C1 (configuration not stated)
TGI [2]: > 100 µM
TGI [3]: > 100 µM
TGI [4]: > 100 µM
TGI [5]: > 100 µM
TGI [6]: > 100 µM

CCOC(=O)/C(C#N)=C/c1[nH]c(C)c(C)c1C
TGI [2]: > 100 µM
TGI [8]: > 100 µM
TGI [3]: > 100 µM
TGI [4]: > 100 µM
TGI [6]: > 100 µM
TGI [7]: > 100 µM

c1ccc2c(c1)-c1nc3ccccc3cc1C2N1CCOCC1 (configuration not stated)
TGI [9]: > 100 µM
TGI [1]: > 100 µM

C=C(C=O)[C@@H]1CC=C(C=O)CC1
GI50 [1]: 3.06 µM
TGI [1]: 26.4 µM

O=C(Nc1ccc(-n2cc(-c3ccncc3)c(-c3ccc(Cl)c(O)c3)n2)cc1)c1ccc(Cl)c(C(F)(F)F)c1
GI50 [1]: 3.03 µM
TGI [1]: > 34.9 µM

Cc1cccc(C)c1NC(=O)/C(CC(=O)CC(c1ccccc1)c1c(O)c2ccccc2oc1=O)=N/O (configuration not stated)
TGI [9]: > 100 µM

CCN(CC)[C@@H]1c2cc3c(cc2C(c2cc(OC)c(O)c(OC)c2)C2C(=O)CO[C@@H]21)OCO3 (some centres not stated)
TGI [2]: > 100 µM
TGI [3]: > 100 µM
TGI [4]: > 100 µM
TGI [5]: > 100 µM
TGI [7]: > 100 µM

Nc1ncnc2c1c(-c1ccc(Oc3ccccc3)cc1)nn2C[C@H]1SSC[C@H]1O
GI50 [1]: 0.205 µM
TGI [1]: 0.518 µM

CC(=O)c1ccc(-c2ccc(C(C)=O)s2)s1
TGI [2]: > 100 µM
TGI [8]: > 100 µM
TGI [3]: > 100 µM
TGI [4]: > 100 µM
TGI [5]: > 100 µM
TGI [6]: > 100 µM
TGI [7]: > 100 µM

C[C@]12CC[C@H](O)CC1CCC[C@@H]2O (some centres not stated)
TGI [2]: > 100 µM
TGI [3]: > 100 µM
TGI [5]: > 100 µM
TGI [6]: > 100 µM
TGI [7]: > 100 µM

Nc1c(S(=O)(=O)O)cc2c(c1Cl)C(=O)c1ccccc1C2=O
GI50 [1]: > 100 µM
TGI [1]: > 100 µM

C=C1[C@@H]2CCC(C)(C)[C@H]1CCC(=O)[C@@H]2C(=O)OC
TGI [3]: > 100 µM
TGI [4]: > 100 µM
TGI [5]: > 100 µM
TGI [7]: > 100 µM

OCC1C2C=CC(O2)[C@H]1CO (some centres not stated)
TGI [2]: > 100 µM
TGI [8]: > 100 µM
TGI [3]: > 100 µM
TGI [4]: > 100 µM
TGI [5]: > 100 µM
TGI [6]: > 100 µM

CN(CC(=O)O)Cc1c[nH]c2ccccc12
TGI [9]: > 100 µM

CC/C(=C(/c1ccc(Cl)cc1)c1ccc(OCCCN(C)C)cc1)c1ccc(OC)cc1
GI50 [1]: 3.76 µM
TGI [1]: 12.1 µM

CC12CCC(C)(c3cc(O)c(O)cc31)c1cc(O)c(O)cc12
TGI [2]: 45.7 µM
TGI [3]: 22.2 µM
TGI [4]: 31.6 µM
TGI [5]: 55.6 µM
TGI [6]: 39.2 µM
TGI [7]: 34 µM

COC(=O)c1cccc(COc2ccc([N+](=O)[O-])cc2Cl)c1
TGI [1]: > 100 µM

COC(=O)C1=CCS(=O)(=O)C1
TGI [2]: > 100 µM
TGI [8]: > 100 µM
TGI [3]: > 100 µM
TGI [4]: > 100 µM
TGI [5]: > 100 µM
TGI [6]: > 100 µM
TGI [7]: > 100 µM

COc1cccc(-c2nn(C)c3sc(C(=O)NCCN4CCN(c5ccccc5F)CC4)cc23)c1
GI50 [1]: 4.32 µM
TGI [1]: > 100 µM

Clc1ccc2c(NCCCNCc3ccc4c(c3)OCO4)ccnc2c1
GI50 [1]: 2.11 µM
TGI [1]: 5.26 µM

Nc1nc(N)c(N=Nc2ccc([As](=O)(O)O)c(O)c2)c(N)n1
TGI [9]: 5.29 µM
TGI [1]: > 100 µM

O=C(O)c1cccc(F)c1C(=O)c1ccc2ccccc2c1
TGI [9]: > 100 µM
TGI [1]: > 100 µM

C=CCOc1ccc2c(c1)CC[C@@H]1[C@@H]2CC[C@]2(C)C(=O)/C(=N/O)C[C@@H]12
GI50 [1]: 2.64 µM
TGI [1]: > 40.4 µM

NC1=C(O)/C(=N/NS(=O)(=O)c2ccccc2)C(c2cccc(Cl)c2)O1 (configuration not stated)
TGI [2]: 31.7 µM
TGI [8]: > 100 µM
TGI [3]: 35.8 µM
TGI [4]: > 57.2 µM
TGI [9]: 37.9 µM
TGI [6]: > 100 µM

CC(=O)Oc1cc(OC(C)=O)c(OC(C)=O)c2c1CC1C(=O)C3(CCc4ccccc43)C(=O)C1C2 (configuration not stated)
TGI [2]: 35.2 µM
TGI [8]: 43.6 µM
TGI [3]: 28 µM
TGI [4]: 30.1 µM
TGI [6]: 58.2 µM
TGI [7]: 27.9 µM

NCCCSCC(=O)O
TGI [3]: > 100 µM
TGI [4]: > 100 µM
TGI [6]: > 100 µM

COc1ccc(/C=N/C2=C(C#N)C(c3ccccc3)c3ccc4ccccc4c3O2)cc1 (configuration not stated)
GI50 [1]: 0.493 µM
TGI [1]: > 100 µM
